Experimental data reported in patent publication US8877927B2 (Grunenthal GmbH, priority 2006, dated 2014).

Key:
[1] = Liver microsomal incubations (HLM); format: in vitro ADME; conditions: human liver microsomes 0.5 mg/mL, 25 μM, NADPH, percent remaining at 1 hour
Description: (§1) Human and rat liver microsomes were purchased from BD Gentest (Woburn, Mass., USA) and β-nicotinamide adenine dinucleotide 2′-phosphate reduced tetrasodium salt (NADPH) was purchased from Sigma-Aldrich (Poole, Dorset, UK). All liver microsome incubations were carried out in 50 mM potassium phosphate buffer at pH 7.4, with a final microsomal protein concentration of 0.5 mg/mL. […] In brief, compounds were added to the incubation buffer along with the liver microsomes and incubated at 37° C. for 10 minutes. The reaction was then initiated by the addition of NADPH, previously dissolved in incubation buffer, to give a final concentration of 1 mM and re-incubated at 37° C. Aliquots were removed at 2 and 60 minutes and quenched with an equal volume of cold acetonitrile. After mixing vigorously, the precipitated protein matter was removed by filtration (Multiscreen Solvinert filter plates, Millipore, Bedford, Mass., USA) and the filtrate analysed by reverse phase HPLC with mass spectrometric detection, using single ion monitoring of the [M+H]^+ species. Metabolic turnover was determined by comparison of peak areas from the ion chromatograms of the parent compound at 2 and 60 minutes and expressed as percent remaining at 1 hour.

[2] = Liver microsomal incubations (RLM); format: in vitro ADME; conditions: rat liver microsomes 0.5 mg/mL, 25 μM, NADPH, percent remaining at 1 hour
Description: as §1

[3] = Plasma incubations (human plasma stability); format: in vitro ADME; conditions: 25 μM, 37° C., percent remaining at 1 hour
Description: (§2) Human and rat plasma were purchased from Innovative Research Inc. (Southfield. Mich., USA). […] Aliquots were removed at 2 and 60 minutes and quenched with an equal volume of cold acetonitrile. After mixing vigorously, the precipitated protein matter was removed by filtration (Multiscreen Solvinert filter plates, Millipore, Bedford, Mass., USA) and the filtrate analysed by reverse phase HPLC with mass spectrometric detection, using single ion monitoring of the [M+H]^+ species. Metabolic turnover was determined by comparison of peak areas from the ion chromatograms of the parent compound at 2 and 60 minutes and expressed as percent remaining at 1 hour.

[4] = Plasma incubations (rat plasma stability); format: in vitro ADME; conditions: 25 μM, 37° C., percent remaining at 1 hour
Description: as §2

[5] = biological target: T1, Human recombinant cathepsin K (Homo sapiens, UniProt P43235); assay: In vitro cathepsin K Ki inhibition measurement; format: biochemical; conditions: for Ki: recombinant human cathepsin K, read-out: In vitro Ki (nM) vs Cath K
T1 construct: purchased B. Turk, Josef, Stefan Institute, Ljubljana, Slovenia
T1 sequence (P43235 115-329): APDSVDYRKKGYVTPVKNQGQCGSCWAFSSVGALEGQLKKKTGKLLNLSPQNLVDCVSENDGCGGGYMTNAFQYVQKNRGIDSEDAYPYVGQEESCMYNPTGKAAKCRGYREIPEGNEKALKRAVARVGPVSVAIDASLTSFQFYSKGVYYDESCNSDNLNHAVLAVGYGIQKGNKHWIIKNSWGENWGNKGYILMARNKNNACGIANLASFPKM
Description: Stock solutions of substrate or inhibitor were made up to 10 mM in 100% dimethylsulfoxide (DMSO) (Rathbums, Glasgow, U.K.) and diluted as appropriately required. In all cases the DMSO concentration in the assays was maintained at less than 1% (vol./vol.). The equilibrium inhibition constants (Ki^ss) for each compound were measured under steady-state conditions monitoring enzyme activity as a function of inhibitor concentration. The values were calculated on the assumption of pure competitive behaviour (Cornish-Bowden, A. Fundamentals of enzyme kinetics Portland Press; 1995, 93-128.). Human recombinant cathepsin K (0.25 nM final; B. Turk, Josef, Stefan Institute, Ljubljana, Slovenia), was routinely assayed in 100 mM sodium acetate; pH 5.5 containing 1 mM EDTA, 10 mM L-cysteine and 1.8 μM Z-Leu-Arg-AMC ([S]═KM).
The apparent inhibition constant (Ki) for each compound was determined on the basis that inhibition was reversible and occurred by a pure-competitive mechanism. The Ki values were calculated, from the dependence of enzyme activity as a function of inhibitor concentration, by direct regression analysis (Prism v 3.02) using Equation 2 (Cornish-Bowden, A., 1995.).
In situations where the apparent dissociation constant (Ki^app) approached the enzyme concentrations, the Ki^app values were calculated using a quadratic solution in the form described by Equation 3 (Morrison, J. F. Trends Biochem. Sci., 7, 102-105, 1982; Morrison, J. F. Biochim. Biophys. Acta, 185, 269-286, 1969; Stone, S. R. and Hofsteenge, J. Biochemistry, 25, 4622-4628, 1986).
In Equation 3 ‘vi’ is the observed residual activity, ‘F’ is the difference between the maximum activity (i.e. in the absence of inhibitor) and minimum enzyme activity, ‘Eo’ is the total enzyme concentration, ‘Ki^app’ is the apparent dissociation constant and ‘Io’ is the inhibitor concentration. Curves were fitted by non-linear regression analysis (Prism) using a fixed value for the enzyme concentration. Equation 4 was used to account for the substrate kinetics, where ‘Ki’ is the inhibition constant, ‘[So]’ is the initial substrate concentration and ‘KM^app’ is the apparent macroscopic binding (Michaelis) constant for the substrate (Morrison, 1982).

[6] = Rat pharmacokinetics (oral bioavailability, clearance); format: in vivo; conditions: for clearance / bioavailability: in vivo; for bioavailability: oral, read-out: Rat Oral Bioavailability (% F); for reduction in clearance: compared to prior art compound 42
[7] = compared to prior art compound 11
[8] = compared to prior art compound 42

SMILES | HLM % rem. @ 1 hr [1] | RLM % rem. @ 1 hr [2] | Human Plasma Stability % rem. @ 1 h [3] | Rat Plasma Stability % rem. @ 1 h [4] | Ki [5] | clearance [6] | bioavailability [6] | improvement in in vitro potency against recombinant human cathepsin K [5, 8] | reduction in clearance [6] | other results
CN1CCN(c2ccc(C(=O)N[C@H](C(=O)N3CC(Cl)[C@H]4OCC(=O)[C@H]43)C3CCCC3)cc2)CC1 (stereo in doubt) [Example 5, N—((S)-2-((3aS,6S,6aS)-6-chloro-3-oxodihydro-2H-furo[3,2-b]pyrrol-4(5H,6H,6aH)-yl)-1-cyclopentyl-2-oxoethyl)-4-(4-methylpiperazin-1-yl)benzamide] | 85.6% | 81.3% | 97.4% | 96.6% | 0.5 nM | 107 mL/min/kg | 37% | 17 fold | – | increase in in vitro potency against recombinant human cathepsin K ([5]; compared to the direct (S)-leucine analogue (14)): 3.5 fold
CN1CCN(c2ccc(C(=O)N[C@H](C(=O)N3CC(F)[C@H]4OCC(=O)[C@H]43)C3CCCCC3)cc2)CC1 (stereo in doubt) [Example 2, N—((S)-1-cyclohexyl-2-((3aS,6S,6aS)-6-fluoro-3-oxodihydro-2H-furo[3,2-b]pyrrol-4(5H,6H,6aH)-yl)-2-oxoethyl)-4-(4-methylpiperazin-1-yl)benzamide] | 98.2% | 73.3% | 93.1% | 100% | 14.9 nM | 25 mL/min/kg | 80% | – | 68% | –
CN1CCN(c2nc(-c3ccc(C(=O)N[C@H](C(=O)N4C[C@@H](F)[C@H]5OCC(=O)[C@H]54)C4CCCC4)cc3)cs2)CC1 [Example 7] | 74% | 3.5% | 96.3% | 88% | 0.9 nM | – | – | – | – | –
CN1CCN(c2nc(-c3ccc(C(=O)N[C@H](C(=O)N4C[C@@H](Cl)[C@H]5OCC(=O)[C@H]54)C4CCCC4)cc3)cs2)CC1 [Example 8] | 54.1% | 7.7% | 96% | 85.1% | 0.3 nM | – | – | – | – | –
CN1CCN(c2ccc(C(=O)N[C@H](C(=O)N3C[C@H](F)[C@H]4OCC(=O)[C@H]43)C3CCCC3)cc2)CC1 [Example 1, N—((S)-1-cyclopentyl-2-((3aS,6S,6aS)-6-fluoro-3-oxodihydro-2H-furo[3,2-b]pyrrol-4(5H,6H,6aH)-yl)-2-oxoethyl)-4-(4-methylpiperazin-1-yl)benzamide] | 100% | 82% | 96.4% | 95.9% | 1.7 nM | 23 mL/min/kg | 88% | 5 fold | 71% | –

Continued, in another order:

HLM % rem. @ 1 hr [1] | RLM % rem. @ 1 hr [2] | Human Plasma Stability % rem. @ 1 h [3] | Rat Plasma Stability % rem. @ 1 h [4] | Ki [5] | clearance [6] | bioavailability [6] | improvement in in vitro potency against recombinant human cathepsin K [5, 8] | reduction in clearance [6] | SMILES | other results
66.7% | 4.4% | 70.2% | 90.2% | 1.5 nM | – | – | – | – | CC(C)C[C@H](NC(=O)c1ccc(-c2csc(N3CCN(C)CC3)n2)cc1)C(=O)N1C[C@@H](F)[C@H]2OCC(=O)[C@H]21 [prior art compound 8.19] | improvement in in vitro potency against recombinant human cathepsin K [5, 7]: only minor improvement
79.4% | 4.3% | 82.5% | 93% | – | – | – | – | – | CN1CCN(c2nc(-c3ccc(C(=O)N[C@H](C(=O)N4CC[C@H]5OCC(=O)[C@H]54)C4CCCC4)cc3)cs2)CC1 [prior art compound 13] | improvement in in vitro potency against recombinant human cathepsin K [5, 7]: only minor improvement
– | – | – | – | 3.7 nM | – | – | – | – | CC(C)C[C@H](NC(=O)c1ccc(N2CCN(C)CC2)cc1)C(=O)N1C[C@@H](Cl)[C@H]2OCC(=O)[C@H]21 [prior art compound 15] | HLM % rem. @ 1 hr ([1]; listed as drawing 59): 80.3%; RLM % rem. @ 1 hr ([2]; listed as drawing 59): 81.6%; Human Plasma Stability % rem. @ 1 h ([3]; listed as drawing 59): 90.3%; Rat Plasma Stability % rem. @ 1 h ([4]; listed as drawing 59): 88.9%
95% | 76.6% | 95% | 84.2% | – | 79 mL/min/kg | 31.5% | – | – | CC(C)C[C@H](NC(=O)c1ccc(N2CCN(C)CC2)cc1)C(=O)N1CC[C@H]2OCC(=O)[C@H]21 [prior art compound 42] | –
– | – | – | – | 1.8 nM | – | – | – | – | CC(C)C[C@H](NC(=O)c1ccc(N2CCN(C)CC2)cc1)C(=O)N1C[C@@H](Cl)[C@H]2OCC(=O)[C@H]21 [prior art compound 14] | HLM % rem. @ 1 hr ([1]; listed as drawing 58): 84.8%; RLM % rem. @ 1 hr ([2]; listed as drawing 58): 85.5%; Human Plasma Stability % rem. @ 1 h ([3]; listed as drawing 58): 85.5%; Rat Plasma Stability % rem. @ 1 h ([4]; listed as drawing 58): 92.8%
91.2% | 93.9% | 97.2% | 94.1% | 1.8 nM | 56 mL/min/kg | 45% | 5 fold | 29% | CN1CCN(c2ccc(C(=O)N[C@H](C(=O)N3CC[C@H]4OCC(=O)[C@H]43)C3CCCC3)cc2)CC1 [prior art compound 12] | –
96.8% | 93.6% | 100% | 94.2% | 3.6 nM | 81 mL/min/kg | 40% | 2.4 fold | no effect | CC(C)C[C@H](NC(=O)c1ccc(N2CCN(C)CC2)cc1)C(=O)N1C[C@@H](F)[C@H]2OCC(=O)[C@H]21 [prior art compound 10] | –
82.6% | 4.8% | 92.6% | 88.6% | – | – | – | – | – | CC(C)C[C@H](NC(=O)c1ccc(-c2csc(N3CCN(C)CC3)n2)cc1)C(=O)N1CC[C@H]2OCC(=O)[C@H]21 [prior art compound 11] | –
